As usually defined, the IC50 is the concentration that inhibits the measured activity by half.

The values that follow come from patent US20050272784A1 (priority 2004, published 2005).

One assay relates to SPI1 type III protein secretion system (SopE'-'Bla secretion). Nature of the assay: Primary assay: Type III protein secretion of the chimeric SopE'-'Bla polypeptide by Salmonella enterica. The note with it: read-out: SopE IC50. The assay is classed as cell-based. The source says: Primary assay: Type III protein secretion of the chimeric SopE′-'Bla polypeptide by Salmonella enterica. This procedure is a cell-based assay that measures the type III-dependent secretion by Salmonella enterica of a plasmid-encoded chimeric polypeptide whose synthesis can be regulated, and which is endowed with an enzymatic activity that can be monitored […] by hydrolysis of a substrate that is unable to penetrate into the bacterial cytoplasm within the time constraints of the reaction. Thus, the colorimetric reaction is not influenced by SopE′-'Bla polypeptide in the bacterial cytoplasm. Instead, it effectively measures the amount of polypeptide that has been secreted from the S. enterica cytoplasm to the extracellular medium via type III system protein secretion.
The SopE′-' Bla recombinant polypeptide consists of two functionally distinct domains spliced together. The N-terminus domain is encoded by a polynucleotide region specifying the signal for type III secretion of the SopE polypeptide of S. enterica, an effector of the SPI1 type III protein secretion system. The C-terminus domain of SopE′-'Bla consists of a 263 amino acid peptide sequence that corresponds to the TEM-1 β-lactamase expressed by plasmid pBR322 but without its N-terminal signal sequence. The TEM-1 β-lactamase part of the SopE′-'Bla chimeric polypeptide is used as a reporter enzyme. It is capable of hydrolyzing nitrocefin resulting in a product whose accumulation can be monitored by colorimetric detection. The secretion of the SopE′-'Bla chimeric polypeptide from the cytoplasm to the extracellular medium is dependent on type III protein secretion.
For this procedure, cells grown under conditions known to favor a functional SPI1 secretion system are induced for expression of the SopE′-'Bla protein and grown either in the presence or in the absence of putative inhibitors for determined time. Nitrocefin is then added to the various cultures and its hydrolysis are used for quantitation. An inhibitor of Type III protein secretion is generally a compound that reduces the signal of the enzymatic reaction by decreasing the amount of SopE′-'Bla secreted into the extracellular medium.
Turning to `O=C(N[C@@H](C[S+]([O-])Cc1ccccc1)C(=O)O)c1nc(-c2ccc(C(F)(F)F)cc2)[nH]c1-c1ccc(-c2ccccc2)cc1` (stereo partly drawn) [Compound 12, (R)-2-{[5-Biphenyl-4-yl-2-(4-trifluoromethylphenyl)-1H-imidazole-4-carbonyl]amino}-3-phenylmethanesulfinylpropionic acid], the IC50 worked out at 14 µM.

With `O=C(NC(Cc1ccc(Cl)cc1)C(=O)O)c1nc(-c2ccc(C(F)(F)F)cc2)oc1-c1cnc2ccccc2n1` (centres unmarked) [Compound 54, 3-(4-Chlorophenyl)-2-{[5-quinoxalin-2-yl-2-(4-trifluoromethylphenyl)oxazole-4-carbonyl]amino}propionic acid], the IC50 was 49.4 µM. Still for that read-out and setting: for `O=C(N[C@@H](COCc1ccccc1)C(=O)O)c1nc(-c2ccc(C(F)(F)F)cc2)oc1C1CCN(c2nccc(C(F)(F)F)n2)CC1` [Compound 56] the value was 12 µM. Still for that read-out and setting: the figure for `O=C(NC(Cc1ccc(Cl)cc1)C(=O)O)c1nc(-c2cccc3ccccc23)oc1-c1ccc(C(F)(F)F)nc1` (centres unmarked) [Compound 58, 3-(4-Chlorophenyl)-2-{[2-naphthalen-1-yl-5-(6-trifluoromethylpyridin-3-yl)oxazole-4-carbonyl]amino}propionic acid] is 4.2 µM; for `O=C(NC(Cc1ccc(Cl)cc1)C(=O)O)c1cc(-c2ccc(-c3ccccc3)cc2)nn1-c1cccc(C(F)(F)F)c1` (centres unmarked) [Compound 74, 2-{[5-Biphenyl-4-yl-2-(3-trifluoromethylphenyl)-2H-pyrazole-3-carbonyl]amino}-3-(4-chlorophenyl)propionic acid] it is 1.5 µM; for `O=C(NC(Cc1ccc(Cl)cc1)C(=O)O)c1cc(-c2ccc(-c3ccccc3)cc2)nn1-c1ccc(Cl)c(Cl)c1` (centres unmarked) [Compound 75, 2-{[5-Biphenyl-4-yl-2-(3,4-dichlorophenyl)-2H-pyrazole-3-carbonyl]amino}-3-(4-chlorophenyl)propionic acid] it is 3 µM.

Consider `O=C(NC(Cc1ccc(Cl)cc1)C(=O)O)c1cc(-c2ccc(-c3ccccc3)cc2)nn1-c1ccc(C(F)(F)F)cc1` (centres unmarked) [Compound 76, 2-{[5-Biphenyl-4-yl-2-(4-trifluoromethylphenyl)-2H-pyrazole-3-carbonyl]amino}-3-(4-chlorophenyl)propionic acid], for which the IC50 is 19.6 µM.

The test system of a further assay is type III protein secretion system of P. aeruginosa PA103 (ExoU secretion). Kind of assay: Tertiary assay: Type III-dependent secretion of ExoU by P. aeruginosa PA103. Type of assay: cell-based. The note with it: Pseudomonas aeruginosa, ExoU Conc 100 μM, read-out: ExoU % Inh. The source says: Tertiary assay: inhibition of Type III protein secretion of effectors from a Pseudomonas aeruginosa system. Type III protein secretion is used by P. aeruginosa to secrete several essential virulence determinants. One effector of the type III protein secretion system of P. aeruginosa PA103 is the virulence determinants ExoU.
The amount of Type III-dependent secretion of ExoU by P. aeruginosa PA103 can be determined in a cell-based assay by quantification of the 73.9 kDa ExoU protein scereted into the extracellular medium. Such quantitation can be achieved by growing strain PA103 in a deferrated medium in the presence of nitrilotriacetic acid (an inducer of Type III protein secretion in P. aeruginosa) and either in the presence or absence of putative inhibitors. After a prolonged growth period, the cells are sedimented and the supernatants concentrated by ammonium sulfate precipitation. The proteins in the resuspended pellets are separated by electrophoresis on SDS-polyacrylamide gels. After staining gels with Colloidal Blue™, the 73.9 kDa ExoU band is quantitated by scanning through an imager. The effects of inhibitors on the intensity of the ExoU band may be measured relative to that of untreated controls.
Take `O=C(N[C@@H](C[S+]([O-])Cc1ccccc1)C(=O)O)c1nc(-c2ccc(C(F)(F)F)cc2)[nH]c1-c1ccc(-c2ccccc2)cc1` (stereo partly drawn) [Compound 12, (R)-2-{[5-Biphenyl-4-yl-2-(4-trifluoromethylphenyl)-1H-imidazole-4-carbonyl]amino}-3-phenylmethanesulfinylpropionic acid]: the inhibition at 100 µM amounted to 84.3%.
